Values of other authors, collected in paper PMC5889410, “Design and Biological Evaluation of Antifouling Dihydrostilbene Oxime Hybrids” (Marine Biotechnology (New York, N.y.), 2018).
≈ marks a conversion by molar mass, not a printed value.

How the values were obtained:
Halomonas aquamarina [1] = settings: ref Hanssen et al. ([2014]); cited from earlier work
Roseobacter litoralis = settings: ref Hanssen et al. ([2014]); cited from earlier work
Halamphora coffeaeformis [2] = settings: ref Hanssen et al. ([2014]); cited from earlier work
Vibrio carchariae [3] = settings: ref Hanssen et al. ([2014]); cited from earlier work
[4] = test system: Pleurochrysis roscoffensis; settings: ref Hanssen et al. ([2014]); cited from earlier work
Cylindrotheca closterium [5] = settings: ref Hanssen et al. ([2014]); cited from earlier work
Porphyridium purpureum [6] = settings: ref Hanssen et al. ([2014]); cited from earlier work
Vibrio harveyi [7] = settings: ref Hanssen et al. ([2014]); cited from earlier work
[8] = test system: Pleurochrysis roscoffensis; settings: ref Hanssen et al. ([2014]); cited from earlier work; remark: listed apart in the source
Vibrio aestuarianus [9] = settings: ref Hanssen et al. ([2014]); cited from earlier work
Vibrio proteolyticus [10] = settings: ref Hanssen et al. ([2014]); cited from earlier work
Vibrio carchariae [11] = settings: ref Hanssen et al. ([2014]); cited from earlier work; remark: listed apart in the source
[12] = test system: Balanus improvisus cyprid larvae; settings: B. improvisus, ref Hanssen et al. ([2014]), cited from earlier work
Shewanella putrefaciens = settings: ref Hanssen et al. ([2014]); cited from earlier work
Vibrio harveyi [13] = settings: ref Hanssen et al. ([2014]); cited from earlier work; remark: listed apart in the source
Cylindrotheca closterium [14] = settings: ref Hanssen et al. ([2014]); cited from earlier work; remark: listed apart in the source
marine bacteria = settings: panel of marine bacteria; ref Hanssen et al. [2014]; cited from earlier work
Vibrio natriegens = settings: ref Hanssen et al. ([2014]); cited from earlier work
microalgae = test system: microalgae; set-up: method as in Hanssen et al. [2014]; settings: ref Hanssen et al. [2014]; cited from earlier work
Vibrio proteolyticus [15] = settings: ref Hanssen et al. ([2014]); cited from earlier work; remark: listed apart in the source
Vibrio aestuarianus [16] = settings: ref Hanssen et al. ([2014]); cited from earlier work; remark: listed apart in the source
Halamphora coffeaeformis [17] = settings: ref Hanssen et al. ([2014]); cited from earlier work; remark: listed apart in the source
Porphyridium purpureum [18] = settings: ref Hanssen et al. ([2014]); cited from earlier work; remark: listed apart in the source
[19] = test system: Pseudoalteromonas elyakovii; settings: ref Hanssen et al. ([2014]); cited from earlier work
Halomonas aquamarina [20] = settings: ref Hanssen et al. ([2014]); cited from earlier work; remark: listed apart in the source

COc1c(Br)cc(C/C(=N\O)C(=O)NCCc2c[nH]c(=N)[nH]2)cc1Br [Ianthelline, ianthelline]
MIC against the growth of marine bacteria, H.a. (Halomonas aquamarina [1]): – (Not active at > 10 μg/mL) | MIC against the growth of marine bacteria, R.l. (Roseobacter litoralis): 1 µg/mL | MIC against the adhesion (A) of microalgae, H. coffeaformis (Halamphora coffeaeformis [2]): > 10 µg/mL | MIC against the growth of marine bacteria, V.c. (Vibrio carchariae [3]): – (Not active at > 10 μg/mL) | MIC against the growth (G) of microalgae, P. roscoffensis [4]: 10 µg/mL | MIC against the growth (G) of microalgae, C. closterium (Cylindrotheca closterium [5]): > 10 µg/mL | MIC against the growth (G) of microalgae, P. purpureum (Porphyridium purpureum [6]): > 10 µg/mL | MIC against the adhesion of marine bacteria, V.h. (Vibrio harveyi [7]): – (Not active at > 10 μg/mL) | MIC against the adhesion (A) of microalgae, P. roscoffensis [8]: > 10 µg/mL | MIC against the adhesion of marine bacteria, V.a. (Vibrio aestuarianus [9]): 0.1 µg/mL | MIC against the adhesion of marine bacteria, V.p. (Vibrio proteolyticus [10]): – (Not active at > 10 μg/mL) | MIC against the adhesion of marine bacteria, V.c. (Vibrio carchariae [11]): – (Not active at > 10 μg/mL) | IC50 (cyprid settlement inhibition) [12]: 3.0 µg/mL (≈ 6.31 µM) | Toxicity (%) (dead cyprids) ([12]; reported at 5 μg/mL): 10.0% | MIC against the growth of marine bacteria, S.p. (Shewanella putrefaciens): 0.1 µg/mL | MIC against the growth of marine bacteria, V.h. (Vibrio harveyi [13]): 10 µg/mL | MIC against the adhesion (A) of microalgae, C. closterium (Cylindrotheca closterium [14]): > 10 µg/mL | Inhibition of bacterial adhesion, in general (marine bacteria): not effective | MIC against the growth of marine bacteria, V.n. (Vibrio natriegens): – (Not active at > 10 μg/mL) | antialgal activity, in words (microalgae): poor antialgal activity | MIC against the growth of marine bacteria, V.p. (Vibrio proteolyticus [15]): 10 µg/mL | MIC against the growth of marine bacteria, V.a. (Vibrio aestuarianus [16]): 0.1 µg/mL | MIC against the growth (G) of microalgae, H. coffeaformis (Halamphora coffeaeformis [17]): > 10 µg/mL | MIC against the adhesion (A) of microalgae, P. purpureum (Porphyridium purpureum [18]): > 10 µg/mL | MIC against the growth of marine bacteria, P.e. [19]: 1 µg/mL | MIC against the adhesion of marine bacteria, H.a. (Halomonas aquamarina [20]): – (Not active at > 10 μg/mL)
